Test results reported in article PMC10485003, “Antibiotic hyper-resistance in a class I aminoacyl-tRNA synthetase with altered active site signature motif” (Nature Communications, 2023).
Where “and” joins values, the source holds several entries; their conditions need not be identical. Equal entries are not always repeated.

Molecular target: T1, mut-GVHH PmIleRS2 (Priestia megaterium, UniProt A0A0B6AVD3, G56H/H54G)
T1 sequence (A0A0B6AVD3 1-1032 H54G/G56H): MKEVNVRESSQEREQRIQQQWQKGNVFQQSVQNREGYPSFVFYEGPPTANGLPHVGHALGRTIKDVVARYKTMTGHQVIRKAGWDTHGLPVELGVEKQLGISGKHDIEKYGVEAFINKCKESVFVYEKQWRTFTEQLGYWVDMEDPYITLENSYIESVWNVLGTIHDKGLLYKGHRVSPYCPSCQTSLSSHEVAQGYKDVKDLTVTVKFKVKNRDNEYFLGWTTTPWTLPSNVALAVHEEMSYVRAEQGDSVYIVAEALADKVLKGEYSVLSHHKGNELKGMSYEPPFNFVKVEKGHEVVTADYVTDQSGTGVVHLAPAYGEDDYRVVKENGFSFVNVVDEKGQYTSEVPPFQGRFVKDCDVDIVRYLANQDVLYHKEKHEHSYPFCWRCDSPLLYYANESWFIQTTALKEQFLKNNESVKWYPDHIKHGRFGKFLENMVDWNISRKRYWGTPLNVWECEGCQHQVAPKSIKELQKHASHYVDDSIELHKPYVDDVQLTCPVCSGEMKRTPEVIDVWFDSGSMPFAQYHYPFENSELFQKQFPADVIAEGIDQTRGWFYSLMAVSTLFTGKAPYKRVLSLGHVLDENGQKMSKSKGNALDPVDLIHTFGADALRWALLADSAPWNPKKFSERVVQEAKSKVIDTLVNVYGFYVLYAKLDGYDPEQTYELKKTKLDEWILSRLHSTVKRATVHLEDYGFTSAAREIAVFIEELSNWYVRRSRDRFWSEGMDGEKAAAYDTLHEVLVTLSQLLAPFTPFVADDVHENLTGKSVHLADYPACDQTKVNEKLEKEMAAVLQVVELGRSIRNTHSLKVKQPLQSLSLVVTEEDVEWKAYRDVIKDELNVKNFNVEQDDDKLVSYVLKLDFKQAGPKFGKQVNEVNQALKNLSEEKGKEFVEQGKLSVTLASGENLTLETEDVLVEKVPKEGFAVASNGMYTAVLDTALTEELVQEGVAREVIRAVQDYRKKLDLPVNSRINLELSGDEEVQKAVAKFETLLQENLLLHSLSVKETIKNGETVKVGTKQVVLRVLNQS
Experiment: ATP-PPi exchange assay, mupirocin inhibition of amino acid activation
Assay type: biochemical, Priestia (Bacillus) megaterium
Protocol: L-Ile and ATP concentrations ranged from 1/10 KM to 10 KM values. When measuring the KI towards one of the substrates, the other was held in saturation (concentrations at least 10 KM). The aliquots of the reaction mixture (1–2.5 μl) were quenched in 2 volumes of 500 mM NaOAc pH = 4.5, 0.1% SDS, and formed ^32P-ATP was separated from the remaining ^32P-PPi by thin-layer chromatography on Polygram CEL 300 PEI UV254 TLC plates (Macherey-Nagel, cat: 801063) using 750 mM KH2PO4 pH=3.5, 4 M urea buffer. Visualization and quantification of the signals was performed using a Typhoon Phosphoimager 5 (General Electric) and accompanying ImageQuant™ TL software (SV: 10.2). The kinetic constants were determined using a global fit option of the competitive inhibition model of GraphPad Prism 6 software (SV: 6.01). All experiments were performed in triplicates. The kcat was determined by dividing the maximal velocity, VM, with the used enzyme concentration. […]
variable substrate (ATP or Ile) was varied in the range of 0.1 KM to 10 KM. The other substrate (Ile or ATP) was kept in excess at 5 to 10 KM. Data were globally fitted to the competitive inhibition model using GraphPad prism 6.01 for Windows software. The values represent the average value ± SD of three independent experiments. Source data are provided as a Source Data file.

## C/C(=C\C(=O)OCCCCCCCCC(=O)O)C[C@@H]1OC[C@H](C[C@@H]2O[C@H]2[C@@H](C)[C@H](C)O)[C@@H](O)[C@H]1O [mupirocin]
KI (MUP)ATP, amino acid activation assay, ATP as variable substrate, average ± SD of three independent experiments
  Ki: 480 ± 10 µM
KI (MUP)Ile, amino acid activation step, ATP/PPi exchange assay, Ile varied, ATP saturating, average ± SD of three independent experiments
  Ki: 460 ± 10 µM
KI, single replicates, mupirocin inhibition towards Ile, GraphPad Prism output, Repl1-Repl3
  Ki: 470 µM and 480 µM and 420 µM
C (mupirocin) = 0.5 mM, c (Ile) 100.0 μM, Replica 1
  vo: 0.01849 mM/min
C (mupirocin) = 0.5 mM, c (Ile) 100.0 μM, Replica 2
  vo: 0.01948 mM/min
C (mupirocin) = 0.5 mM, c (Ile) 250.0 μM, Replica 1
  vo: 0.03623 mM/min
C (mupirocin) = 0.5 mM, c (Ile) 250.0 μM, Replica 2
  vo: 0.03682 mM/min
C (mupirocin) = 0.5 mM, c (Ile) 250.0 μM, Replica 3
  vo: 0.03653 mM/min
C (mupirocin) = 0.5 mM, c (Ile) 500.0 μM, Replica 1
  vo: 0.05582 mM/min
C (mupirocin) = 0.5 mM, c (Ile) 500.0 μM, Replica 2
  vo: 0.05871 mM/min
C (mupirocin) = 0.5 mM, c (Ile) 500.0 μM, Replica 3
  vo: 0.05786 mM/min
C (mupirocin) = 0.5 mM, c (Ile) 1000.0 μM, Replica 1
  vo: 0.07169 mM/min
C (mupirocin) = 0.5 mM, c (Ile) 1000.0 μM, Replica 2
  vo: 0.07587 mM/min
C (mupirocin) = 0.5 mM, c (Ile) 1000.0 μM, Replica 3
  vo: 0.07605 mM/min
C (mupirocin) = 0.5 mM, c (Ile) 1500.0 μM, Replica 1
  vo: 0.08634 mM/min
C (mupirocin) = 0.5 mM, c (Ile) 1500.0 μM, Replica 2
  vo: 0.08442 mM/min
C (mupirocin) = 0.5 mM, c (Ile) 1500.0 μM, Replica 3
  vo: 0.08419 mM/min
C (mupirocin) = 1.0 mM, c (Ile) 100.0 μM, Replica 1
  vo: 0.01236 mM/min
C (mupirocin) = 1.0 mM, c (Ile) 100.0 μM, Replica 2
  vo: 0.01246 mM/min
C (mupirocin) = 1.0 mM, c (Ile) 100.0 μM, Replica 3
  vo: 0.01228 mM/min
C (mupirocin) = 1.0 mM, c (Ile) 250.0 μM, Replica 1
  vo: 0.0294 mM/min
C (mupirocin) = 1.0 mM, c (Ile) 250.0 μM, Replica 2
  vo: 0.02992 mM/min
C (mupirocin) = 1.0 mM, c (Ile) 250.0 μM, Replica 3
  vo: 0.02794 mM/min
C (mupirocin) = 1.0 mM, c (Ile) 500.0 μM, Replica 1
  vo: 0.04465 mM/min
C (mupirocin) = 1.0 mM, c (Ile) 500.0 μM, Replica 2
  vo: 0.04713 mM/min
C (mupirocin) = 1.0 mM, c (Ile) 500.0 μM, Replica 3
  vo: 0.04492 mM/min
C (mupirocin) = 1.0 mM, c (Ile) 1000.0 μM, Replica 1
  vo: 0.06444 mM/min
C (mupirocin) = 1.0 mM, c (Ile) 1000.0 μM, Replica 2
  vo: 0.06152 mM/min
C (mupirocin) = 1.0 mM, c (Ile) 1000.0 μM, Replica 3
  vo: 0.06395 mM/min
C (mupirocin) = 1.0 mM, c (Ile) 1500.0 μM, Replica 1
  vo: 0.07511 mM/min
C (mupirocin) = 1.0 mM, c (Ile) 1500.0 μM, Replica 2
  vo: 0.07278 mM/min
C (mupirocin) = 1.0 mM, c (Ile) 1500.0 μM, Replica 3
  vo: 0.07621 mM/min
C (mupirocin) = 2.5 mM, c (Ile) 100.0 μM, Replica 1
  vo: 0.00609 mM/min
C (mupirocin) = 2.5 mM, c (Ile) 100.0 μM, Replica 2
  vo: 0.00589 mM/min
C (mupirocin) = 2.5 mM, c (Ile) 100.0 μM, Replica 3
  vo: 0.00628 mM/min
C (mupirocin) = 2.5 mM, c (Ile) 250.0 μM, Replica 1
  vo: 0.01433 mM/min
C (mupirocin) = 2.5 mM, c (Ile) 250.0 μM, Replica 2
  vo: 0.01642 mM/min
C (mupirocin) = 2.5 mM, c (Ile) 250.0 μM, Replica 3
  vo: 0.01353 mM/min
C (mupirocin) = 2.5 mM, c (Ile) 500.0 μM, Replica 1
  vo: 0.02701 mM/min
C (mupirocin) = 2.5 mM, c (Ile) 500.0 μM, Replica 2
  vo: 0.02762 mM/min
C (mupirocin) = 2.5 mM, c (Ile) 500.0 μM, Replica 3
  vo: 0.02637 mM/min
C (mupirocin) = 2.5 mM, c (Ile) 1000.0 μM, Replica 1
  vo: 0.042 mM/min
C (mupirocin) = 2.5 mM, c (Ile) 1000.0 μM, Replica 2
  vo: 0.04503 mM/min
C (mupirocin) = 2.5 mM, c (Ile) 1000.0 μM, Replica 3
  vo: 0.03982 mM/min
C (mupirocin) = 2.5 mM, c (Ile) 1500.0 μM, Replica 1
  vo: 0.05219 mM/min
C (mupirocin) = 2.5 mM, c (Ile) 1500.0 μM, Replica 2
  vo: 0.055 mM/min
C (mupirocin) = 2.5 mM, c (Ile) 1500.0 μM, Replica 3
  vo: 0.05194 mM/min
C (mupirocin) = 5.0 mM, c (Ile) 100.0 μM, Replica 1
  vo: 0.00403 mM/min
C (mupirocin) = 5.0 mM, c (Ile) 100.0 μM, Replica 2
  vo: 0.00438 mM/min
C (mupirocin) = 5.0 mM, c (Ile) 100.0 μM, Replica 3
  vo: 0.00348 mM/min
C (mupirocin) = 5.0 mM, c (Ile) 250.0 μM, Replica 1
  vo: 0.0082 mM/min
C (mupirocin) = 5.0 mM, c (Ile) 250.0 μM, Replica 2
  vo: 0.00786 mM/min
